Test results reported in US10702592B2, “Peptides and combination of peptides for use in immunotherapy against NHL and other cancers” (Immatics Biotechnologies GmbH, priority 2016, dated 2020).

Assays:
CD8+ T cells = assay: In vitro T-cell priming immunogenicity assay (aAPC with pMHC and anti-CD28, multimer staining); assay type: cell-based, human; conditions: HLA-A*02 restricted peptides; percentage of positive wells and donors (among evaluable)
Excerpt: In order to obtain information regarding the immunogenicity of the TUMAPs of the present invention, the inventors performed investigations using an in vitro T-cell priming assay based on repeated stimulations of CD8+ T cells with artificial antigen presenting cells (aAPCs) loaded with peptide/MHC complexes and anti-CD28 antibody.
In order to perform in vitro stimulations by artificial antigen presenting cells loaded with peptide-MHC complex (pMHC) and anti-CD28 antibody, the inventors first isolated CD8+ T cells from fresh HLA-A*02 leukapheresis products via positive selection using CD8 microbeads (Miltenyi Biotec, Bergisch-Gladbach, Germany) of healthy donors obtained from the University clinics Mannheim, Germany, after informed consent.
PBMCs and isolated CD8+ lymphocytes were incubated in T-cell medium (TCM) until use consisting of RPMI-Glutamax (Invitrogen, Karlsruhe, Germany) supplemented with 10% heat inactivated human AB serum (PAN-Biotech, Aidenbach, Germany), 100 U/ml Penicillin/100 μg/ml Streptomycin (Cambrex, Cologne, Germany), 1 mM sodium pyruvate (CC Pro, Oberdorla, Germany), 20 μg/ml Gentamycin (Cambrex). 2.5 ng/ml IL-7 (PromoCell, Heidelberg, Germany) and 10 U/ml IL-2 (Novartis Pharma, Nurnberg, Germany) were also added to the TCM at this step.
Generation of pMHC/anti-CD28 coated beads, T-cell stimulations and readout was performed in a highly defined in vitro system using four different pMHC molecules per stimulation condition and 8 different pMHC molecules per readout condition.
The purified co-stimulatory mouse IgG2a anti human CD28 Ab 9.3 (Jung et al., 1987) was chemically biotinylated using Sulfo-N-hydroxysuccinimidobiotin as recommended by the manufacturer (Perbio, Bonn, Germany). Beads used were 5.6 μm diameter streptavidin coated polystyrene particles (Bangs Laboratories, Illinois, USA).
800.000 beads/200 μl were coated in 96-well plates in the presence of 4×12.5 ng different biotin-pMHC, washed and 600 ng biotin anti-CD28 were added subsequently in a volume of 200 μl. Stimulations were initiated in 96-well plates by co-incubating 1×10^6 CD8+ T cells with 2×10^5 washed coated beads in 200 μl TCM supplemented with 5 ng/ml IL-12 (PromoCell) for 3 days at 37° C. Half of the medium was then exchanged by fresh TCM supplemented with 80 U/ml IL-2 and incubating was continued for 4 days at 37° C. This stimulation cycle was performed for a total of three times. For the pMHC multimer readout using 8 different pMHC molecules per condition, a two-dimensional combinatorial coding approach was used as previously described (Andersen et al., 2012) with minor modifications encompassing coupling to 5 different fluorochromes. Finally, multimeric analyses were performed by staining the cells with Live/dead near IR dye (Invitrogen, Karlsruhe, Germany), CD8-FITC antibody clone SK1 (BD, Heidelberg, Germany) and fluorescent pMHC multimers. For analysis, a BD LSRII SORP cytometer equipped with appropriate lasers and filters was used. Peptide specific cells were calculated as percentage of total CD8+ cells. Evaluation of multimeric analysis was done using the FlowJo software (Tree Star, Oregon, USA). In vitro priming of specific multimer+CD8+ lymphocytes was detected by comparing to negative control stimulations.

HLA-A*02:01 = HLA-A*02:01 (Homo sapiens, UniProt P04439, D140Y/D185E/D98H/E176V/E277Q/G131W/G231S/I119V/I121R/I166T/I218V/L300P/L318F/N151K/N90K/P208A/P217A/Q86G/Q94H/R138H/R169H/T345S); assay: MHC binding assay (UV-ligand exchange, beta2m ELISA); conditions: binding to HLA-A*02:01, UV-ligand exchange
Summary of the method: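 UV-exchange pMHC monomers, 100-fold diluted → streptavidin capture 1 h 37 °C → HRP anti-β2m 2 ug/ml 1 h 37 °C → TMB, A450. Yield from HLA-A*02:01/MLA-001 monomer standard curve, 15-500 ng/ml. Only stably bound peptides keep β2m-containing complexes intact.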

Row | Substance | Wells positive [%] (CD8+ T cells) | Peptide exchange (MHC class I binding score, peptide exchange yield) (HLA-A*02:01)
1 | 8 (ALYAVIEKA; listed as Homo sapiens) [compound 8] | “+” (<20% = +) | “+++” (≥50 = +++)
2 | 41 (ILASIFETV; listed as Homo sapiens) [compound 41] | “+++” (50% - 69% = +++) | “++++” (≥75% = ++++)
3 | 21 (ALFKEAYSL; listed as Homo sapiens) [compound 21] | “+” (<20% = +) | “+++” (≥50 = +++)
4 | 1 (LLSGQLPTI; listed as Homo sapiens) [compound 1] | “+++” (50% - 69% = +++) | “+++” (≥50 = +++)
5 | 67 (LLATVNVAL; listed as Homo sapiens) [compound 67] | “+” (<20% = +) | “++++” (≥75% = ++++)
6 | 261 (FLPETRIMTSV; listed as Homo sapiens) [compound 261] | “+” (<20% = +) | “++++” (≥75% = ++++)
7 | 27 (FLNQESFDL; listed as Homo sapiens) [compound 27] | “+” (<20% = +) | “+++” (≥50 = +++)
